Holding throughout (format): in vivo
Assay [1] relates to Alopecurus myosuroides (ALOMY). Kind of assay: Example B pre-emergence herbicidal activity. Particulars: 312 h, evaluated after 13 days, read-out: Pre-Emergence Activity ALOMY (100=total damage to plant; 0=no damage to plant); for pest or weed control at 250 g/ha: rate 250 g/ha. The protocol: (§1) Seeds of a variety of test species were sown in standard soil in pots. After cultivation for one day (pre-emergence) or after 8 days cultivation (post-emergence) under controlled conditions in a glasshouse (at 24/16° C., day/night; 14 hours light; 65% humidity), the plants were sprayed with an aqueous spray solution derived from the formulation of the technical active ingredient in acetone/water (50:50) solution containing 0.5% Tween 20 (polyoxyethelyene sorbitan monolaurate, CAS RN 9005-64-5).
(§2) The test plants were then grown in a glasshouse under controlled conditions in a glasshouse (at 24/16° C., day/night; 14 hours light; 65% humidity) and watered twice daily. After 13 days for pre and post-emergence, the test was evaluated (100=total damage to plant; 0=no damage to plant).
(§3) Alopecurus myosuroides (ALOMY), Avena fatua (AVEFA), Setaria faberi (SETFA), Echinochloa crus-galli (ECHCG), Solanum nigrum (SOLNI) and Amaranthus retoflexus (AMARE)

Assay [2] deals with Amaranthus retoflexus (AMARE). Kind of assay: Example B pre-emergence herbicidal activity. Particulars: Amaranthus retroflexus, 312 h, evaluated after 13 days, read-out: Pre-Emergence Activity AMARE (100=total damage to plant; 0=no damage to plant); for pest or weed control at 250 g/ha: rate 250 g/ha. The protocol:
as §1, §2, §3

In assay [3] the test system is Avena fatua (AVEFA). Kind of assay: Example B pre-emergence herbicidal activity. Particulars: 312 h, evaluated after 13 days, read-out: Pre-Emergence Activity AVEFA (100=total damage to plant; 0=no damage to plant); for pest or weed control at 250 g/ha: rate 250 g/ha. The protocol:
as §1, §2, §3

The subject of assay [4] is Echinochloa crus-galli (ECHCG). In words: Example B pre-emergence herbicidal activity. Particulars: 312 h, evaluated after 13 days, read-out: Pre-Emergence Activity ECHCG (100=total damage to plant; 0=no damage to plant); for pest or weed control at 250 g/ha: rate 250 g/ha. As for the experimental part:
as §1, §2, §3

The test system of assay [5] is Setaria faberi (SETFA). In words: Example B pre-emergence herbicidal activity. Particulars: 312 h, evaluated after 13 days, read-out: Pre-Emergence Activity SETFA (100=total damage to plant; 0=no damage to plant); for pest or weed control at 250 g/ha: rate 250 g/ha. The protocol:
as §1, §2, §3

Assay [6] has as its system Alopecurus myosuroides (ALOMY). In words: Example B post-emergence herbicidal activity. Particulars: 312 h, evaluated after 13 days, read-out: Post-emergence activity ALOMY (100=total damage to plant; 0=no damage to plant); for pest or weed control at 250 g/ha: rate 250 g/ha. A digest of the protocol: (§4)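 Visual injury score (0 none to 100 total) taken 13 days after spraying. Treatment was applied pre-emergence at day 1 or post-emergence at day 8, using acetone/water 50:50 containing 0.5% Tween 20.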

Assay [7] concerns Amaranthus retoflexus (AMARE). In words: Example B post-emergence herbicidal activity. Particulars: Amaranthus retroflexus, 312 h, evaluated after 13 days, read-out: Post-emergence activity AMARE (100=total damage to plant; 0=no damage to plant); for pest or weed control at 250 g/ha: rate 250 g/ha. In outline:
as §4

Assay [8] has as its system Avena fatua (AVEFA). Kind of assay: Example B post-emergence herbicidal activity. Particulars: 312 h, evaluated after 13 days, read-out: Post-emergence activity AVEFA (100=total damage to plant; 0=no damage to plant); for pest or weed control at 250 g/ha: rate 250 g/ha. In outline:
as §4

In assay [9] the test system is Echinochloa crus-galli (ECHCG). Kind of assay: Example B post-emergence herbicidal activity. Particulars: 312 h, evaluated after 13 days, read-out: Post-emergence activity ECHCG (100=total damage to plant; 0=no damage to plant); for pest or weed control at 250 g/ha: rate 250 g/ha. A digest of the protocol: as §4
The subject of assay [10] is Setaria faberi (SETFA). Kind of assay: Example B post-emergence herbicidal activity. Particulars: 312 h, evaluated after 13 days, read-out: Post-emergence activity SETFA (100=total damage to plant; 0=no damage to plant); for pest or weed control at 250 g/ha: rate 250 g/ha. In outline: as §4

For `Cc1sc(-c2ccc(OC(F)(F)F)cc2)nc1C1C(=O)[C@@H]2CC[C@@H](C2)C1=O` (stereo partly shown) [Compound T5, 3-[5-methyl-2-(4-trifluoromethoxyphenyl)thiazol-4-yl]bicyclo[3.2.1]octane-2,4-dione], the pest or weed control at 250 g/ha in assay [1] came out at 50%; in [2] it was 0%; in the assay on Avena fatua (AVEFA) [3], 0%; in [4], 80%; in the assay with Setaria faberi (SETFA) [5], 90%; in assay [6], 70%. The pest or weed control at 250 g/ha came to 0% in assay [7], 0% with Avena fatua (AVEFA) [8], 100% in assay [9] and 100% in the assay on Setaria faberi (SETFA) [10].
For `Cc1sc(-c2ccc(Cl)c(Cl)c2)nc1C1C(=O)[C@@H]2CC[C@@H](C2)C1=O` (stereo partly shown) [Compound T9], the pest or weed control at 250 g/ha in assay [1] was 30%; in assay [2] it was 0%; with Avena fatua (AVEFA) [3], 0%; in [4] it was 50%; in the assay on Setaria faberi (SETFA) [5] it was 50%; in assay [6] it was 60%. The pest or weed control at 250 g/ha in [7] came to 0%; in the assay on Avena fatua (AVEFA) [8] it was 0%; in [9] it was 70%; in the assay on Setaria faberi (SETFA) [10], 100%.
For `Cc1ccc(-c2nc(C3C(=O)[C@@H]4CC[C@@H](C4)C3=O)c(C)s2)cc1Cl` (stereo partly shown) [Compound T10], the pest or weed control at 250 g/ha in [1] is 20%; in [2], 0%; with Avena fatua (AVEFA) [3], 0%; in assay [4], 60%; in the assay with Setaria faberi (SETFA) [5], 20%; in assay [6] it was 20%. Also, the pest or weed control at 250 g/ha in [7] is 0%; in the assay on Avena fatua (AVEFA) [8], 0%; in assay [9] it was 70%; in the assay with Setaria faberi (SETFA) [10], 70%.
`Cc1ccc(-c2nc(C3C(=O)[C@@H]4CC[C@@H](C4)C3=O)c(C)s2)cc1` (stereo partly shown) [Compound T11]: the pest or weed control at 250 g/ha in [1] worked out at 40%; in assay [2], 0%; with Avena fatua (AVEFA) [3], 0%; in [4], 70%; in the assay with Setaria faberi (SETFA) [5] it was 0%; in assay [6] it was 90%. Also, the pest or weed control at 250 g/ha worked out at 0% in [7], 40% with Avena fatua (AVEFA) [8], 100% in [9] and 80% with Setaria faberi (SETFA) [10].
Take `Cc1sc(-c2ccc(Cl)cc2F)nc1C1C(=O)[C@@H]2CC[C@@H](C2)C1=O` (stereo partly shown) [Compound T13]: the pest or weed control at 250 g/ha in assay [1] is 90%; in [2] it was 0%; in the assay on Avena fatua (AVEFA) [3] it was 40%; in assay [4], 100%; with Setaria faberi (SETFA) [5] it was 100%; in assay [6], 100%. The pest or weed control at 250 g/ha in assay [7] was found to be 0%; with Avena fatua (AVEFA) [8], 90%; in assay [9], 100%; with Setaria faberi (SETFA) [10], 100%.
Consider `Cc1cc(Cl)ccc1-c1nc(C2C(=O)[C@@H]3CC[C@@H](C3)C2=O)c(C)s1` (stereo partly shown) [Compound T14], for which the pest or weed control at 1000 g/ha was determined as 30% in assay [1] (rate 1000 g/ha); 0% in assay [2] (rate 1000 g/ha); 80% in the assay with Avena fatua (AVEFA) [3] (rate 1000 g/ha); 90% in assay [4] (rate 1000 g/ha); 70% in the assay on Setaria faberi (SETFA) [5] (rate 1000 g/ha); 90% in assay [6] (rate 1000 g/ha). Also, the pest or weed control at 1000 g/ha in [7] (rate 1000 g/ha) was 20%; in the assay with Avena fatua (AVEFA) [8] (rate 1000 g/ha), 90%; in assay [9] (rate 1000 g/ha), 100%; in the assay with Setaria faberi (SETFA) [10] (rate 1000 g/ha), 100%.
Take `CCc1sc(-c2ccc(Cl)c(C)c2)nc1C1C(=O)[C@@H]2CC[C@@H](C2)C1=O` (stereo partly shown) [Compound T20]: the pest or weed control at 250 g/ha in assay [1] was 50%; in assay [2] it was 0%; in the assay on Avena fatua (AVEFA) [3], 0%; in assay [4] it was 70%; with Setaria faberi (SETFA) [5] it was 40%; in assay [6], 90%. The pest or weed control at 250 g/ha in assay [7] stood at 0%; in the assay on Avena fatua (AVEFA) [8], 90%; in [9], 100%; in the assay on Setaria faberi (SETFA) [10], 90%.
In the case of `CCc1sc(-c2ccc(Cl)c(Cl)c2)nc1C1C(=O)[C@@H]2CC[C@@H](C2)C1=O` (stereo partly shown) [Compound T22], the pest or weed control at 250 g/ha in assay [1] is 70%; in assay [2], 20%; in the assay on Avena fatua (AVEFA) [3], 20%; in [4] it was 80%; with Setaria faberi (SETFA) [5], 100%; in assay [6], 90%. Further, the pest or weed control at 250 g/ha in [7] is 0%; in the assay on Avena fatua (AVEFA) [8] it was 90%; in [9], 90%; in the assay on Setaria faberi (SETFA) [10], 90%.
Regarding `CCc1sc(-c2ccc(Cl)cc2F)nc1C1C(=O)[C@@H]2CC[C@@H](C2)C1=O` (stereo partly shown) [Compound T26], the pest or weed control at 250 g/ha in assay [1] is 90%; in [2], 0%; in the assay with Avena fatua (AVEFA) [3] it was 60%; in assay [4], 100%; in the assay on Setaria faberi (SETFA) [5], 100%; in assay [6], 100%. Besides, the pest or weed control at 250 g/ha in [7] was 40%; in the assay on Avena fatua (AVEFA) [8], 100%; in assay [9], 100%; with Setaria faberi (SETFA) [10], 100%.
As to `CCc1sc(-c2ccc(Cl)c(F)c2)nc1C1C(=O)[C@@H]2CC[C@@H](C2)C1=O` (stereo partly shown) [Compound T27], the pest or weed control at 250 g/ha in [1] is 90%; in assay [2], 0%; in the assay with Avena fatua (AVEFA) [3] it was 90%; in assay [4], 100%; in the assay on Setaria faberi (SETFA) [5], 100%; in [6] it was 100%. The pest or weed control at 250 g/ha in assay [7] amounted to 0%; with Avena fatua (AVEFA) [8] it was 100%; in [9], 100%; with Setaria faberi (SETFA) [10], 100%.

The record behind these values is patent US8598365B2, “Herbicides” (Syngenta Limited, priority 2007, dated 2013).
